What all share (assay type): cell-based
The subject of test [1] is S. uberis ATCC 19436. Description: MBC by Miles-Misra drop-plate method, S. uberis. As to conditions: Streptococcus uberis. On the procedure: (§1) Antibacterial susceptibility testing was performed in triplicate (biological) by measuring minimum inhibitory concentrations (MICs) by broth microdilution in 96-well flat bottom microtiter plates (ThermoFisher Scientific, New Zealand). S. uberis ATCC 19436, S. aureus ATCC 6538, or E. coli ATCC 10596 cells grown overnight were diluted to an OD600 of approximately 0.025, so that the final concentration of cells in the MIC assay was approximately 5×10^5 cfu/mL in media as follows: S. uberis; Todd Hewitt Broth (THB), S. aureus; Tryptic Soy Broth (TSB) and Cation Adjusted Muller Hinton Broth (CAMHB), and E. coli; Lysogeny Borth (LB) and CAMHB, before being dispensed into microtiter wells. As required additional sterile Zinc Sulphate (Heptahydrate) was supplemented into the media, so the final concentration was 50 μM. Test compounds were added to starting wells and two-fold serial dilutions were undertaken to generate a range of inhibitor concentrations at a final volume of 200 μl. Media and test compound-free (untreated) controls were included in each microtiter plate in triplicate. After 24 h incubation at 37° C. and 200 rpm, the OD600 of wells were read using a Varioskan Flash plate reader (ThermoFisher Scientific, New Zealand). The MIC was reported as the lowest concentration of the test compound for which no growth occurred, as determined by OD600 readings. The minimum bactericidal concentration (MBC) was determined using the Miles-Misra drop-plate method to measure the viability of cells in response to test compound challenge.

Another test concerns E. coli ATCC 10596. Description: MIC by broth microdilution, E. coli. As to conditions: Escherichia coli. An outline of the steps: (§2)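 MBC measured as cell viability after compound challenge by Miles-Misra drop plating. MIC: broth microdilution at ~5×10^5 cfu/mL final (S. aureus: TSB, CAMHB; E. coli: LB, CAMHB; optional 50 μM zinc sulphate), 24 h at 37° C, 200 rpm, lowest concentration without growth by OD600; biological triplicate.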

For test [2], the system named is S. uberis ATCC 19436. Put plainly: MIC by broth microdilution, S. uberis. The settings on record: Streptococcus uberis. An outline of the steps: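 This broth microdilution assay used S. uberis ATCC 19436 in Todd Hewitt Broth, with zinc sulphate heptahydrate added where required to a final 50 μM. Inhibitor concentration ranges came from two-fold serial dilutions in 96-well flat bottom plates at 200 μl. Approximately 5×10^5 cfu/mL cells were incubated for 24 h at 37° C. and 200 rpm. Wells were then read at OD600 on a Varioskan Flash reader.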

Test [3] deals with S. aureus ATCC 6538. Put plainly: MIC by broth microdilution, S. aureus. The settings on record: Staphylococcus aureus. An outline of the steps:
as §2

Test [4] deals with S. aureus ATCC 6538. Description: MBC by Miles-Misra drop-plate method, S. aureus. The settings on record: Staphylococcus aureus. How it is done:
as §1

Another test concerns E. coli ATCC 10536. Description: MBC by Miles-Misra drop-plate method, E. coli. As to conditions: Escherichia coli. How it is done: as §1
Where [5] appears, read: ATCC19436, read-out: S. uberis ATCC 19436 MBC, No Zinc.
The mark [6] stands for this setting: ATCC19436, read-out: S. uberis ATCC 19436 MBC, Zinc (50 μM).
Where [7] appears, read: ATCC 10536 / ATCC 10596, read-out: E. coli ATCC 10536 MIC, No Zinc.
The mark [8] stands for this setting: ATCC 10536 / ATCC 10596, read-out: E. coli ATCC 10536 MIC, Zinc (50 μM).
[9] abbreviates: ATCC19436, read-out: S. uberis ATCC 19436 MIC, No Zinc.
[10] abbreviates: ATCC19436, read-out: S. uberis ATCC 19436 MIC, Zinc (50 μM).
The mark [11] stands for this setting: ATCC6538, read-out: S. aureus ATCC 6538 MIC, No Zinc.
Where [12] appears, read: ATCC6538, read-out: S. aureus ATCC 6538 MIC, Zinc (50 μM).
The mark [13] stands for this setting: ATCC6538, read-out: S. aureus ATCC 6538 MBC, No Zinc.
Where [14] appears, read: ATCC6538, read-out: S. aureus ATCC 6538 MBC, Zinc (50 μM).
Where [15] appears, read: ATCC10536, read-out: E. coli ATCC 10536 MBC, No Zinc.
Setting [16] is: ATCC10536, read-out: E. coli ATCC 10536 MBC, Zinc (50 μM).
[17] abbreviates: ATCC19436, No Zinc, read-out: S. uberis ATCC 19436 MBC.
Where [18] appears, read: ATCC19436, Zinc (50 μM), read-out: S. uberis ATCC 19436 MBC.
Setting [19] is: ATCC 10536 / ATCC 10596, No Zinc, read-out: E. coli ATCC 10536 MIC.
The mark [20] stands for this setting: ATCC 10536 / ATCC 10596, Zinc (50 μM), read-out: E. coli ATCC 10536 MIC.
[21] abbreviates: ATCC19436, No Zinc, read-out: S. uberis ATCC 19436 MIC.
Where [22] appears, read: ATCC19436, Zinc (50 μM), read-out: S. uberis ATCC 19436 MIC.
The mark [23] stands for this setting: ATCC6538, No Zinc, read-out: S. aureus ATCC 6538 MIC.
Setting [24] is: ATCC6538, Zinc (50 μM), read-out: S. aureus ATCC 6538 MIC.
The mark [25] stands for this setting: ATCC6538, No Zinc, read-out: S. aureus ATCC 6538 MBC.
The mark [26] stands for this setting: ATCC6538, Zinc (50 μM), read-out: S. aureus ATCC 6538 MBC.
Where [27] appears, read: ATCC10536, No Zinc, read-out: E. coli ATCC 10536 MBC.
The mark [28] stands for this setting: ATCC10536, Zinc (50 μM), read-out: E. coli ATCC 10536 MBC.

Five compounds from patent US11691949B2, “Quinoline sulfonamide compounds and their use as antibacterial agents” (OTAGO INNOVATION LIMITED, priority 2017, dated 2023) can be followed below.

In brackets after ≈: the same amount, converted by molar mass. Where two headings read alike, the source gives them in different places.

In the case of `CN(C)CCCNCc1ccc2cccc(NS(=O)(=O)c3ccc(C(F)(F)F)cc3)c2n1` [ZDR090, N-(2-(((3-(Dimethylamino)propyl)amino)methyl)quinolin-8-yl)-4-(trifluoromethyl)benzenesulfonamide di-trifluoroacetate], the MBC is 8 µg/mL (≈ 17.1 µM) in the test with S. uberis ATCC 19436 [1] (setting [5]); 0.5 µg/mL (≈ 1.07 µM) in the test with S. uberis ATCC 19436 [1] (setting [6]); 16 µg/mL (≈ 34.3 µM) in the test on S. aureus ATCC 6538 [4] (setting [13]); 32 µg/mL (≈ 68.6 µM) with S. aureus ATCC 6538 [4] (setting [14]); 16 µg/mL (≈ 34.3 µM) with E. coli ATCC 10536 (setting [15]); 16 µg/mL (≈ 34.3 µM) in the test with E. coli ATCC 10536 (setting [16]). Further, the MIC turned out to be 16 µg/mL (≈ 34.3 µM) in the test on E. coli ATCC 10596 (setting [7]); 16 µg/mL (≈ 34.3 µM) in the test with E. coli ATCC 10596 (setting [8]); 4 µg/mL (≈ 8.57 µM) in the test on S. uberis ATCC 19436 [2] (setting [9]); 0.5 µg/mL (≈ 1.07 µM) in the test with S. uberis ATCC 19436 [2] (setting [10]); 16 µg/mL (≈ 34.3 µM) with S. aureus ATCC 6538 [3] (setting [11]); 16 µg/mL (≈ 34.3 µM) in the test with S. aureus ATCC 6538 [3] (setting [12]).

As to `O=S(=O)(Nc1cccc2ccc(/C=N/NC(=S)NCCN3CCOCC3)nc12)c1ccc(C(F)(F)F)cc1` [ZDR119, (E)-N-(2-Morpholinoethyl)-2-((8-((4-(trifluoromethyl)phenyl)sulfonamido)quinolin-2-yl)methylene)hydrazine-1-carbothioamide], the minimal bactericidal concentration (MBC) is 16 µg/mL (≈ 28.2 µM) in the test with S. uberis ATCC 19436 [1] (setting [17]); 1 µg/mL (≈ 1.76 µM) in the test on S. uberis ATCC 19436 [1] (setting [18]); more than 256 µg/mL in the test with S. aureus ATCC 6538 [4] (setting [25]); 32 µg/mL (≈ 56.5 µM) in the test on S. aureus ATCC 6538 [4] (setting [26]); more than 256 µg/mL in the test with E. coli ATCC 10536 (setting [27]); more than 256 µg/mL with E. coli ATCC 10536 (setting [28]). The minimal inhibitory concentration (MIC) is more than 256 µg/mL in the test with E. coli ATCC 10596 (setting [19]); more than 256 µg/mL in the test on E. coli ATCC 10596 (setting [20]); 4 µg/mL (≈ 7.06 µM) in the test with S. uberis ATCC 19436 [2] (setting [21]); 0.125 µg/mL (≈ 0.221 µM) with S. uberis ATCC 19436 [2] (setting [22]); 4 µg/mL (≈ 7.06 µM) with S. aureus ATCC 6538 [3] (setting [23]); 4 µg/mL (≈ 7.06 µM) in the test with S. aureus ATCC 6538 [3] (setting [24]).

Turning to `CN1CCN(CCNCc2ccc3cccc(NS(=O)(=O)c4ccc(C(F)(F)F)cc4)c3n2)CC1` [ZDR114, N-(2-(((2-(4-Methylpiperazin-1-yl)ethyl)amino)methyl)quinolin-8-yl)-4-(trifluoromethyl)benzenesulfonamide di-trifluoroacetate], the MBC with S. uberis ATCC 19436 [1] (setting [5]) is 32 µg/mL (≈ 63 µM); with S. uberis ATCC 19436 [1] (setting [6]), 4 µg/mL (≈ 7.88 µM); in the test with S. aureus ATCC 6538 [4] (setting [13]) it was 128 µg/mL (≈ 252 µM); in the test with S. aureus ATCC 6538 [4] (setting [14]) it was 64 µg/mL (≈ 126 µM); in the test on E. coli ATCC 10536 (setting [15]) it was more than 256 µg/mL; with E. coli ATCC 10536 (setting [16]), 64 µg/mL (≈ 126 µM). Also, the MIC in the test with E. coli ATCC 10596 (setting [7]) worked out at 64 µg/mL (≈ 126 µM); in the test with E. coli ATCC 10596 (setting [8]), 64 µg/mL (≈ 126 µM); in the test with S. uberis ATCC 19436 [2] (setting [9]), 32 µg/mL (≈ 63 µM); in the test with S. uberis ATCC 19436 [2] (setting [10]) it was 4 µg/mL (≈ 7.88 µM); with S. aureus ATCC 6538 [3] (setting [11]), 64 µg/mL (≈ 126 µM); in the test on S. aureus ATCC 6538 [3] (setting [12]) it was 64 µg/mL (≈ 126 µM).

As to `O=C(N/N=C/c1ccc2cccc(NS(=O)(=O)c3ccc(C(F)(F)F)cc3)c2n1)c1cccnc1` [ZDR121, (E)-N-(2-((2-Nicotnoylhydrazineylidene)methyl)quinolin-8-yl)-4-(trifluoromethyl)benzenesulfonamide], the minimum bactericidal concentration (MBC) is 256 µg/mL (≈ 513 µM) in the test on S. uberis ATCC 19436 [1] (setting [17]); 32 µg/mL (≈ 64.1 µM) in the test with S. uberis ATCC 19436 [1] (setting [18]); 64 µg/mL (≈ 128 µM) in the test on S. aureus ATCC 6538 [4] (setting [25]); 256 µg/mL (≈ 513 µM) in the test on S. aureus ATCC 6538 [4] (setting [26]); more than 256 µg/mL with E. coli ATCC 10536 (setting [27]); more than 256 µg/mL in the test on E. coli ATCC 10536 (setting [28]). Besides, the MIC in the test with E. coli ATCC 10596 (setting [19]) was more than 256 µg/mL; in the test on E. coli ATCC 10596 (setting [20]), more than 256 µg/mL; with S. uberis ATCC 19436 [2] (setting [21]) it was 32 µg/mL (≈ 64.1 µM); in the test on S. uberis ATCC 19436 [2] (setting [22]), 2 µg/mL (≈ 4 µM); in the test with S. aureus ATCC 6538 [3] (setting [23]) it was 16 µg/mL (≈ 32 µM); with S. aureus ATCC 6538 [3] (setting [24]), 16 µg/mL (≈ 32 µM).

Consider `O=S(=O)(Nc1cccc2ccc(CNCCCN3CCOCC3)nc12)c1ccc(C(F)(F)F)cc1` [ZDR116, N-(2-(((3-Morpholinopropyl)amino)methyl)quinolin-8-yl)-4-(trifluoromethyl)benzenesulfonamide], for which the MBC was 64 µg/mL (≈ 126 µM) with S. uberis ATCC 19436 [1] (setting [17]); 2 µg/mL (≈ 3.93 µM) in the test on S. uberis ATCC 19436 [1] (setting [18]); 128 µg/mL (≈ 252 µM) with S. aureus ATCC 6538 [4] (setting [25]); more than 256 µg/mL with S. aureus ATCC 6538 [4] (setting [26]); more than 256 µg/mL in the test on E. coli ATCC 10536 (setting [27]); more than 256 µg/mL in the test on E. coli ATCC 10536 (setting [28]). The minimal inhibitory concentration (MIC) with E. coli ATCC 10596 (setting [19]) is more than 256 µg/mL; in the test with E. coli ATCC 10596 (setting [20]) it was more than 256 µg/mL; in the test with S. uberis ATCC 19436 [2] (setting [21]) it was 32 µg/mL (≈ 62.9 µM); in the test with S. uberis ATCC 19436 [2] (setting [22]) it was 2 µg/mL (≈ 3.93 µM); with S. aureus ATCC 6538 [3] (setting [23]), 64 µg/mL (≈ 126 µM); in the test with S. aureus ATCC 6538 [3] (setting [24]) it was 64 µg/mL (≈ 126 µM).
